Results as given in patent US6358885B1, “Substituted phenylheterocyclic herbicides” (Mississippi State University, priority 1992, dated 2002).

Experiments:
[1] = test system: sugar beet; experiment: Test B preemergence/postemergence greenhouse plant response rating 0 to 10; assay type: in vivo, Beta vulgaris; settings: 0 to 10 scale
Outline: (§1)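 Postemergence treatment of plants two to eighteen cm tall ran alongside preemergence treatment of planted seed, each using compound in a non-phytotoxic solvent.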

[2] = test system: bedstraw; experiment: Test C preemergence/postemergence greenhouse plant response rating 0 to 100; assay type: in vivo, Galium aparine; settings: POSTEMERGENCE; for Plant response rating, Bedstraw: 0 to 100 scale
Outline: (§2)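 Compounds in non-phytotoxic solvent applied preemergence to sandy loam one day after planting, postemergence at the 1–4 leaf stage, or to ~2.5 cm floodwater over silt loam.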

[3] = test system: giant foxtail; experiment: as above; assay type: in vivo, Setaria faberii; settings: POSTEMERGENCE; for Plant response rating, Giant foxtail: 0 to 100 scale
Outline: as §2

[4] = test system: corn; experiment: as above; assay type: in vivo, Zea mays; settings: POSTEMERGENCE; for Plant response rating, Corn: 0 to 100 scale
Outline: as §2

[5] = test system: cotton; experiment: as above; assay type: in vivo, Gossypium hirsutum; settings: POSTEMERGENCE; for Plant response rating, Cotton: 0 to 100 scale
Outline: as §2

[6] = test system: bedstraw; experiment: Test B preemergence/postemergence greenhouse plant response rating 0 to 10; assay type: in vivo, Galium aparine; settings: 0 to 10 scale
Outline: as §1

[7] = test system: morningglory; experiment: Test C preemergence/postemergence greenhouse plant response rating 0 to 100; assay type: in vivo, Ipomoea hederacea; settings: POSTEMERGENCE; for Plant response rating, Morningglory: 0 to 100 scale
Outline: as §2

[8] = test system: sorghum; experiment: as above; assay type: in vivo, Sorghum bicolor; settings: POSTEMERGENCE; for Plant response rating, Sorghum: 0 to 100 scale
Outline: as §2

[9] = test system: chickweed; experiment: Test B preemergence/postemergence greenhouse plant response rating 0 to 10; assay type: in vivo, Stellaria media; settings: 0 to 10 scale
Outline: as §1

[10] = test system: corn; experiment: as above; assay type: in vivo, Zea mays; settings: 0 to 10 scale
Outline: as §1

[11] = test system: wild buckwheat; experiment: as above; assay type: in vivo, Polygonum convolvulus; settings: 0 to 10 scale
Outline: as §1

[12] = test system: wheat; experiment: Test C preemergence/postemergence greenhouse plant response rating 0 to 100; assay type: in vivo, Triticum aestivum; settings: POSTEMERGENCE; for Plant response rating, Wheat: 0 to 100 scale
Outline: as §2

[13] = test system: velvetleaf; experiment: as above; assay type: in vivo, Abutilon theophrasti; settings: POSTEMERGENCE; for Plant response rating, Velvetleaf: 0 to 100 scale
Outline: as §2

[14] = test system: downy brome; experiment: as above; assay type: in vivo, Bromus tectorum; settings: POSTEMERGENCE; for Plant response rating Downy Brome: 0 to 100 scale
Outline: as §2

[15] = test system: duck salad; experiment: Test C flood test plant response rating 0 to 100; assay type: in vivo, Heteranthera limosa; settings: for Plant response rating (0 to 100), Duck salad: under POSTEMERGENCE head (flood test species); for Plant response rating Duck salad: flood test species listed under POSTEMERGENCE, 0 to 100 scale
Outline: as §2

[16] = test system: barnyardgrass; experiment: Test C flood test plant response rating 0 to 100; assay type: in vivo, Echinochloa crus-galli; settings: for Plant response rating (0 to 100), Barnyardgrass: under POSTEMERGENCE head (flood test species); for Plant response rating, Barnyardgrass: flood test species listed under POSTEMERGENCE, 0 to 100 scale
Outline: as §2

[17] = test system: wild oat; experiment: Test C preemergence/postemergence greenhouse plant response rating 0 to 100; assay type: in vivo, Avena fatua; settings: POSTEMERGENCE; for Plant response rating, Wild oat: 0 to 100 scale
Outline: as §2

For CC(C)OC(=O)COc1cc(-c2nn3c(c2Cl)CCCC3)c(F)cc1Cl [Compound 39], the “Plant response rating, Sugar beet” value ([1]; POSTEMERGENCE, Rate 50 g/ha) was 10, the “Plant response rating, Sugar beet” value ([1]; PREEMERGENCE, Rate 50 g/ha) was 8 and the “Plant response rating, Sugar beet” value ([1]; Rate 200 g/ha, POSTEMERGENCE) was 10. For the same molecule, the “Plant response rating, Sugar beet” value ([1]; Rate 200 g/ha, PREEMERGENCE) was 10, the “Plant response rating, Bedstraw” value ([2]; 62 g/ha) was 70 and the “Plant response rating, Bedstraw” value ([2]; 125 g/ha) was 100. For the same molecule, the “Plant response rating (0 to 100), Bedstraw” value ([2]; Rate 31 g/ha) was 60, the “Plant response rating, Giant foxtail” value ([3]; 62 g/ha) was 30 and the “Plant response rating, Giant foxtail” value ([3]; 125 g/ha) was 60. For the same molecule, the “Plant response rating (0 to 100), Giant foxtail” value ([3]; Rate 16 g/ha) was 10, the “Plant response rating (0 to 100), Giant foxtail” value ([3]; Rate 31 g/ha) was 20 and the “Plant response rating, Corn” value ([4]; 62 g/ha) was 30. The “Plant response rating, Corn” value ([4]; 125 g/ha) was 30, the “Plant response rating (0 to 100), Corn” value ([4]; Rate 16 g/ha) was 20 and the “Plant response rating (0 to 100), Corn” value ([4]; Rate 31 g/ha) was 30. For the same molecule, the “Plant response rating, Cotton” value ([5]; 62 g/ha) was 100, the “Plant response rating, Cotton” value ([5]; 125 g/ha) was 100 and the “Plant response rating (0 to 100), Cotton” value ([5]; Rate 16 g/ha) was 100. The “Plant response rating (0 to 100), Cotton” value ([5]; Rate 31 g/ha) was 100, the “Plant response rating, Bedstraw” value ([6]; POSTEMERGENCE, Rate 200 g/ha) was 10 and the “Plant response rating, Bedstraw” value ([6]; PREEMERGENCE, Rate 50 g/ha) was 4. The “Plant response rating, Bedstraw” value ([6]; Rate 200 g/ha, PREEMERGENCE) was 9, the “Plant response rating, Morningglory” value ([7]; 62 g/ha) was 100 and the “Plant response rating, Morningglory” value ([7]; 125 g/ha) was 100. For the same molecule, the “Plant response rating (0 to 100), Morningglory” value ([7]; Rate 16 g/ha) was 60, the “Plant response rating (0 to 100), Morningglory” value ([7]; Rate 31 g/ha) was 100 and the “Plant response rating, Sorghum” value ([8]; 62 g/ha) was 50. The “Plant response rating, Sorghum” value ([8]; 125 g/ha) was 60, the “Plant response rating (0 to 100), Sorghum” value ([8]; Rate 16 g/ha) was 20 and the “Plant response rating (0 to 100), Sorghum” value ([8]; Rate 31 g/ha) was 30. For the same molecule, the “Plant response rating, Chickweed” value ([9]; POSTEMERGENCE, Rate 50 g/ha) was 8, the “Plant response rating, Chickweed” value ([9]; POSTEMERGENCE, Rate 200 g/ha) was 10 and the “Plant response rating, Chickweed” value ([9]; PREEMERGENCE, Rate 50 g/ha) was 0. For the same molecule, the “Plant response rating, Chickweed” value ([9]; Rate 200 g/ha, PREEMERGENCE) was 5, the “Plant response rating, Corn” value ([10]; POSTEMERGENCE, Rate 50 g/ha) was 5 and the “Plant response rating, Corn” value ([10]; POSTEMERGENCE, Rate 200 g/ha) was 5. The “Plant response rating, Corn” value ([10]; PREEMERGENCE, Rate 50 g/ha) was 0, the “Plant response rating, Corn” value ([10]; Rate 200 g/ha, PREEMERGENCE) was 0 and the “Plant response rating, Wild buckwheat” value ([11]; POSTEMERGENCE, Rate 50 g/ha) was 10. The “Plant response rating, Wild buckwheat” value ([11]; PREEMERGENCE, Rate 50 g/ha) was 10, the “Plant response rating, Wild buckwheat” value ([11]; Rate 200 g/ha, POSTEMERGENCE) was 10 and the “Plant response rating, Wild buckwheat” value ([11]; Rate 200 g/ha, PREEMERGENCE) was 10. For the same molecule, the “Plant response rating, Wheat” value ([12]; 62 g/ha) was 10, the “Plant response rating, Wheat” value ([12]; 125 g/ha) was 20 and the “Plant response rating (0 to 100), Wheat” value ([12]; Rate 16 g/ha) was 10. The “Plant response rating (0 to 100), Wheat” value ([12]; Rate 31 g/ha) was 10, the “Plant response rating, Velvetleaf” value ([13]; 62 g/ha) was 100 and the “Plant response rating, Velvetleaf” value ([13]; 125 g/ha) was 100. For the same molecule, the “Plant response rating (0 to 100), Velvetleaf” value ([13]; Rate 16 g/ha) was 100, the “Plant response rating (0 to 100), Velvetleaf” value ([13]; Rate 31 g/ha) was 100 and the “Plant response rating Downy Brome” value ([14]; 62 g/ha) was 30. For the same molecule, the “Plant response rating Downy Brome” value ([14]; 125 g/ha) was 40, the “Plant response rating (0 to 100), Downy Brome” value ([14]; Rate 16 g/ha) was 10 and the “Plant response rating (0 to 100), Downy Brome” value ([14]; Rate 31 g/ha) was 20. For the same molecule, the “Plant response rating (0 to 100), Duck salad” value ([15]; Rate 16 g/ha) was 0, the “Plant response rating (0 to 100), Duck salad” value ([15]; Rate 31 g/ha) was 0 and the “Plant response rating Duck salad” value ([15]; 62 g/ha) was 0. The “Plant response rating Duck salad” value ([15]; 125 g/ha) was 0, the “Plant response rating (0 to 100), Barnyardgrass” value ([16]; Rate 16 g/ha) was 50 and the “Plant response rating (0 to 100), Barnyardgrass” value ([16]; Rate 31 g/ha) was 80. For the same molecule, the “Plant response rating, Barnyardgrass” value ([16]; 62 g/ha) was 90, the “Plant response rating, Barnyardgrass” value ([16]; 125 g/ha) was 95 and the “Plant response rating, Wild oat” value ([17]; 62 g/ha) was 20. For the same molecule, the “Plant response rating, Wild oat” value ([17]; 125 g/ha) was 30, the “Plant response rating (0 to 100), Wild oat” value ([17]; Rate 16 g/ha) was 10 and the “Plant response rating (0 to 100), Wild oat” value ([17]; Rate 31 g/ha) was 20.
